Results from patent US9546173B2 (Novartis AG, priority 2012, dated 2017).

target: activated ERK2 (Homo sapiens (Human), UniProt P28482); assay: Activated ERK2 kinase assay (AlphaScreen, ERKtide peptide phosphorylation); type: biochemical; details: […] ERK2, 200 nM ERKtide peptide, 35 μM ATP, 30 min preincubation; read-out: ERK2 IC50
Description: Production of Activated ERK2 Protein:
Activated ERK2 protein was generated in insect cells by co-expression with a constitutively active form of MEK1. The ERK2 protein was expressed and purified as a nHis-PreScission-ERK2 tagged protein and then proteolytically processed to the full-length wild-type protein. […] Double-phosphorylated ERK2 protein was purified from the mixture by mono-Q column separation.
Activated ERK2 Kinase Assay:
A 16-point, half-log dilution series of compounds at 41× final concentration was used for generating IC50 curves. Compound dilution series were prepared in 100% DMSO. ERK2 was preincubated with compounds for 30 minutes at ambient temperature. Reaction was initiated by addition of a substrate cocktail of ERKtide peptide and ATP and was allowed to proceed for 2-3 hours at ambient temperature. Reaction was terminated by addition of 10 μL of a 2× stop buffer consisting of 100 mM Tris-Cl [pH 7.5], 25 mM EDTA, 0.01% Tween 20, 10 μg/mL of AlphaScreen Protein A Acceptor Beads, 10 μg/mL of Streptavidin Donor Beads (PerkinElmer, Waltham, Mass.), and 1.4 μg/mL phospho-EGF Receptor (Thr669) antibody (Cat #3056, Cell Signaling Technology, Danvers, Mass.). Terminated reactions were read, after overnight incubation in the dark, on an EnVision Multilabel Plate Reader (PerkinElmer, Waltham, Mass.), with excitation and emission wavelengths set to 680 nm and 570 nm, respectively. IC50 values were determined using a four-parameter fit.

activated ERK2, sequence (P28482 whole entry): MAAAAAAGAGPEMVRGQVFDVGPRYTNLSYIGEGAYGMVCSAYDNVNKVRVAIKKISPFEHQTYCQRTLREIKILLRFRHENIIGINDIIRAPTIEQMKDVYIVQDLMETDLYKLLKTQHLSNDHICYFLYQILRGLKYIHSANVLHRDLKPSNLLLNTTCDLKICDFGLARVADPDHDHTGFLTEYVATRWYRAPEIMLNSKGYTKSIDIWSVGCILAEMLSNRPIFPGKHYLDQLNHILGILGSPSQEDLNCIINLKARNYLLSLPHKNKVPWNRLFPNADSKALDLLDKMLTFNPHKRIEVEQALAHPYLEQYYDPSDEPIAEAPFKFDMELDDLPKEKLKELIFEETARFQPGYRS

| SMILES | IC50 |
| --- | --- |
| CN1CC(Nc2ncc3c(n2)CN(C(=O)N[C@H](CO)c2ccccc2)C3(C)C)CCC1=O (stereo partly drawn) [compound 84, N-((S)-2-hydroxy-1-phenylethyl)-5,5-dimethyl-2-((1-methyl-6-oxopiperidin-3-yl)amino)-5H-pyrrolo[3,4-d]pyrimidine-6(7H)-carboxamide] | 164 nM |
| CC(C)Nc1ncc2c(n1)CN(C(=O)N[C@H](CO)c1ccccc1)C2(C)C [compound 74, (S)-N-(2-hydroxy-1-phenylethyl)-2-(isopropylamino)-5,5-dimethyl-5H-pyrrolo[3,4-d]pyrimidine-6(7H)-carboxamide] | 122 nM |
| CC(=O)N1CC[C@@H](Nc2ncc3c(n2)CN(C(=O)N[C@H](CO)c2ccccc2)C3(C)C)C1 [compound 64, 2-(((R)-1-acetylpyrrolidin-3-yl)amino)-N-((S)-2-hydroxy-1-phenylethyl)-5,5-dimethyl-5H-pyrrolo[3,4-d]pyrimidine-6(7H)-carboxamide] | 740 nM |
| Cn1cc(-c2cccc(CNC(=O)N3Cc4nc(NC5CCOCC5)ncc4C3(C)C)c2)cn1 [compound 87, 5,5-dimethyl-N-(3-(1-methyl-1H-pyrazol-4-yl)benzyl)-2-((tetrahydro-2H-pyran-4-yl)amino)-5H-pyrrolo[3,4-d]pyrimidine-6(7H)-carboxamide] | 91 nM |
| CC[C@]1(C)c2cnc(NC3CCOCC3)nc2CN1C(=O)N[C@H](CO)c1ccccc1 [compound 80, (R)-5-ethyl-N-((S)-2-hydroxy-1-phenylethyl)-5-methyl-2-((tetrahydro-2H-pyran-4-yl)amino)-5H-pyrrolo[3,4-d]pyrimidine-6(7H)-carboxamide] | 22 nM |
| CC1(C)c2cnc(NC3CCOCC3)nc2CN1C(=O)N[C@@H]1c2ccccc2C[C@@H]1O [compound 39, N-((1R,2S)-2-hydroxy-2,3-dihydro-1H-inden-1-yl)-5,5-dimethyl-2-((tetrahydro-2H-pyran-4-yl)amino)-5H-pyrrolo[3,4-d]pyrimidine-6(7H)-carboxamide] | < 25000 nM |
| CC1(C)c2cnc(NC3CCOCC3)nc2CN1C(=O)NCc1ccc(C#N)cc1 [compound 122, N-(4-cyanobenzyl)-5,5-dimethyl-2-((tetrahydro-2H-pyran-4-yl)amino)-5H-pyrrolo[3,4-d]pyrimidine-6(7H)-carboxamide] | 38 nM |
| CC1(C)c2cnc(NC3CCOCC3)nc2CN1C(=O)NC1CCOCC1 [compound 18, 5,5-dimethyl-N-(tetrahydro-2H-pyran-4-yl)-2-((tetrahydro-2H-pyran-4-yl)amino)-5H-pyrrolo[3,4-d]pyrimidine-6(7H)-carboxamide] | 2390 nM |
| CCCS(=O)(=O)c1cccc(CNC(=O)N2Cc3nc(NC4CCOCC4)ncc3C2(C)C)c1 [compound 110, 5,5-dimethyl-N-(3-(propylsulfonyl)benzyl)-2-((tetrahydro-2H-pyran-4-yl)amino)-5H-pyrrolo[3,4-d]pyrimidine-6(7H)-carboxamide] | 39 nM |
| CC1(C)c2cnc(NC3CCS(=O)(=O)CC3)nc2CN1C(=O)N[C@H](CO)c1ccccc1 [compound 10, (S)-2-((1,1-dioxidotetrahydro-2H-thiopyran-4-yl)amino)-N-(2-hydroxy-1-phenylethyl)-5,5-dimethyl-5H-pyrrolo[3,4-d]pyrimidine-6(7H)-carboxamide] | 722 nM |
| CC1(C)c2cnc(N[C@H]3CC[C@H](C#N)CC3)nc2CN1C(=O)N[C@H](CO)c1ccccc1 [compound 81, 2-(((1r,4S)-4-cyanocyclohexyl)amino)-N-((S)-2-hydroxy-1-phenylethyl)-5,5-dimethyl-5H-pyrrolo[3,4-d]pyrimidine-6(7H)-carboxamide] | 114 nM |
| CC1(C)c2cnc(NC3CCOCC3)nc2CN1C(=O)NCc1cccc(C#N)c1 [compound 135, N-(3-cyanobenzyl)-5,5-dimethyl-2-((tetrahydro-2H-pyran-4-yl)amino)-5H-pyrrolo[3,4-d]pyrimidine-6(7H)-carboxamide] | 38 nM |
| CC1(C)c2cnc(NC3CCOCC3)nc2CN1C(=O)NCc1cc(F)cc(F)c1 [compound 19, N-(3,5-difluorobenzyl)-5,5-dimethyl-2-((tetrahydro-2H-pyran-4-yl)amino)-5H-pyrrolo[3,4-d]pyrimidine-6(7H)-carboxamide] | 21 nM |
| COC(=O)N1CC[C@@H](Nc2ncc3c(n2)CN(C(=O)N[C@H](CO)c2ccccc2)C3(C)C)C1 [compound 66, (R)-methyl 3-((6-(((S)-2-hydroxy-1-phenylethyl)carbamoyl)-5,5-dimethyl-6,7-dihydro-5H-pyrrolo[3,4-d]pyrimidin-2-yl)amino)pyrrolidine-1-carboxylate] | 30 nM |
| CC1(C)c2cnc(NC3CCOCC3)nc2CN1C(=O)NCc1cc[nH]c(=O)c1 [compound 34, 5,5-dimethyl-N-((2-oxo-1,2-dihydropyridin-4-yl)methyl)-2-((tetrahydro-2H-pyran-4-yl)amino)-5H-pyrrolo[3,4-d]pyrimidine-6(7H)-carboxamide] | 5440 nM |
| CC1(C)c2cnc(NC3CCOCC3)nc2CN1C(=O)N[C@H](CO)c1ccccc1 [compound 1, (S)-N-(2-hydroxy-1-phenylethyl)-5,5-dimethyl-2-((tetrahydro-2H-pyran-4-yl)amino)-5H-pyrrolo[3,4-d]pyrimidine-6(7H)-carboxamide] | 14 nM |
| C[C@@H](NC(=O)N1Cc2nc(NC3CCOCC3)ncc2C1(C)C)c1ccc(C#N)cc1 [compound 136, (R)-N-(1-(4-cyanophenyl)ethyl)-5,5-dimethyl-2-((tetrahydro-2H-pyran-4-yl)amino)-5H-pyrrolo[3,4-d]pyrimidine-6(7H)-carboxamide] | 21 nM |
| Cc1cc(Nc2ncc3c(n2)CN(C(=O)N[C@H](CO)c2ccccc2)C3(C)C)ccn1 [compound 45, (S)-N-(2-hydroxy-1-phenylethyl)-5,5-dimethyl-2-((2-methylpyridin-4-yl)amino)-5H-pyrrolo[3,4-d]pyrimidine-6(7H)-carboxamide] | 625 nM |
| CCC1(C)c2cnc(NC3CCOCC3)nc2CN1C(=O)NCc1ccc(Cl)cc1 (centres unmarked) [compound 78, N-(4-chlorobenzyl)-5-ethyl-5-methyl-2-((tetrahydro-2H-pyran-4-yl)amino)-5H-pyrrolo[3,4-d]pyrimidine-6(7H)-carboxamide] | 22 nM |
| CC1(C)c2cnc(NC3CCOCC3)nc2CN1C(=O)NCc1cccc(S(C)(=O)=O)c1 [compound 4, 5,5-dimethyl-N-(3-(methylsulfonyl)benzyl)-2-((tetrahydro-2H-pyran-4-yl)amino)-5H-pyrrolo[3,4-d]pyrimidine-6(7H)-carboxamide] | 18 nM |
| CC1(C)c2cnc(NC3CCOCC3)nc2CN1C(=O)N[C@@H]1CCCN(S(=O)(=O)c2ccccc2)C1 [compound 42, (R)-5,5-dimethyl-N-(1-(phenylsulfonyl)piperidin-3-yl)-2-((tetrahydro-2H-pyran-4-yl)amino)-5H-pyrrolo[3,4-d]pyrimidine-6(7H)-carboxamide] | 27 nM |
| CC1(C)c2cnc(NCC3CCCO3)nc2CN1C(=O)N[C@H](CO)c1ccccc1 (stereo partly drawn) [compound 75, N-((S)-2-hydroxy-1-phenylethyl)-5,5-dimethyl-2-(((tetrahydrofuran-2-yl)methyl)amino)-5H-pyrrolo[3,4-d]pyrimidine-6(7H)-carboxamide] | 2640 nM |
| CC1(C)c2cnc(NC3CCOCC3)nc2CN1C(=O)N[C@@H]1CCCN(Cc2ccccc2F)C1 [compound 8, (R)-N-(1-(2-fluorobenzyl)piperidin-3-yl)-5,5-dimethyl-2-((tetrahydro-2H-pyran-4-yl)amino)-5H-pyrrolo[3,4-d]pyrimidine-6(7H)-carboxamide] | 82 nM |
| CC1(C)c2cnc(NC3CCOCC3)nc2CN1C(=O)NCc1ccc(Cl)cn1 [compound 35, N-((5-chloropyridin-2-yl)methyl)-5,5-dimethyl-2-((tetrahydro-2H-pyran-4-yl)amino)-5H-pyrrolo[3,4-d]pyrimidine-6(7H)-carboxamide] | 106 nM |
| CC1(C)c2cnc(NC3CCOCC3)nc2CN1C(=O)NCc1ccc(S(C)(=O)=O)cc1 [compound 108, 5,5-dimethyl-N-(4-(methylsulfonyl)benzyl)-2-((tetrahydro-2H-pyran-4-yl)amino)-5H-pyrrolo[3,4-d]pyrimidine-6(7H)-carboxamide] | 65 nM |
| CC1(C)c2cnc(NC3CCOCC3)nc2CN1C(=O)NCc1cccc(F)c1 [compound 20, N-(3-fluorobenzyl)-5,5-dimethyl-2-((tetrahydro-2H-pyran-4-yl)amino)-5H-pyrrolo[3,4-d]pyrimidine-6(7H)-carboxamide] | 16 nM |
| CC1(C)c2cnc(NC3CCOCC3)nc2CN1C(=O)NCC1CCCCO1 (centres unmarked) [compound 14, 5,5-dimethyl-N-((tetrahydro-2H-pyran-2-yl)methyl)-2-((tetrahydro-2H-pyran-4-yl)amino)-5H-pyrrolo[3,4-d]pyrimidine-6(7H)-carboxamide] | 328 nM |
| COCCNc1ncc2c(n1)CN(C(=O)N[C@H](CO)c1ccccc1)C2(C)C [compound 57, (S)-N-(2-hydroxy-1-phenylethyl)-2-((2-methoxyethyl)amino)-5,5-dimethyl-5H-pyrrolo[3,4-d]pyrimidine-6(7H)-carboxamide] | 3480 nM |

same assay, conditions: comparative example text; read-out: IC50 on ERK2

| SMILES | IC50 |
| --- | --- |
| C[C@@H](NC(=O)N1Cc2cnc(NC3CCOCC3)nc2C1)c1ccccc1 [Comparative Example, reference compound] | 360 nM |
